Source: US8673852B2, “Methods of treating neuronal disorders using MNTF peptides and analogs thereof” (Genervon Biopharmaceuticals, LLC, priority 2006, dated 2014)
Where “and” joins values, the source holds several entries; their conditions need not be identical. Equal entries are not always repeated. Where two headings read alike, the source gives them in different places. Ends that are not written are not given here.

Tests used:
[1] = test system: stem cell derived motor neurons; experiment: Survival of stem cell derived motor neurons; type: cell-based; settings: compared with MNTF 33mer
[2] = test system: embryonic stem cells; experiment: Differentiation of embryonic stem cells into motor neurons in vitro; type: cell-based, murine
[3] = Safety in animal studies; type: in vivo; settings: over 1000 Sprague Dawley rats and 15 of both wobbler mice and normal littermates
[4] = Immunocytochemical analysis of brain for GM6 with anti-6mer antibody; type: in vivo, C57BL/6 mice; settings: 0.2 or 2 mg/kg IV
Description: (§1) C57BL6 mice were injected with GM6 at the indicated doses and examined for GM6 in the brain. Half of the brain was taken for immunocytochemical analysis for GM6, the other half (brain) was frozen for ELISA analysis.
(§2) Animals were acclimated for 1 week prior to experimentation. The animals were bolus i.v. dosed via tail vein with vehicle or GM6 at 0.2 or 2 mg/kg. […] Vehicle control received saline solution.
The immunocytochemical stained area in each section was determined with a computer-assisted image analysis system, consisting of a Power Macintosh computer equipped with a Quick Capture frame grabber card, Hitachi CCD camera mounted on an Olympus microscope and camera stand. NIH Image Analysis Software, v. 1.55 was used. The images were captured and the total area of GM6 peptide was determined over the ten sections.

[5] = test system: primary rat neuronal cell cultures; type: cell-based
Description: Sprague Dawley rat cortical neuronal cells were isolated from 18-day-old embryonic fetuses and growth in culture for 12 days. Post mortem CSF from control and various neurological disorders donors were applied to the cultures and examined for neuronal viability. In addition, MNTF was added to the cultures to protect the cells from injury.
Neuronal cultures were prepared from 18-day-old Sprague-Dawley rat fetuses. Fetal rat midbrains were dissected and incubated for 15 min in a solution of 2 mg/mL trypsin in Ca2+- and Mg2+-free Hanks' balanced salt solution (HBSS) buffered with 10 mM HEPES (GIBCO Life Technologies, Paisley, Scotland). The tissue was then exposed for 2 min to soybean trypsin inhibitor (1 mg/mL in HBSS) and rinsed three times in HBSS. Cells were dissociated by trituration and distributed to 96-well or 24-well poly-L-lysine-coated plastic culture plates (Costar, Cambridge, Mass.). Initial plating densities were approximately 160-180 cells/mm2. At the time of plating, each well contained 0.2 ml of DMEM/F12 medium (GIBCO Life Technologies, NY) supplemented with 100 mL/L fetal bovine serum (Sigma Chemicals, St. Louis, Mo.). After a 24-hr period, the DMEM/F12 medium was replaced with 0.15 mL of 2% v/v B-27 Neurobasal medium supplemented with 2 mM GlutaMAX and 0.5% w/v D-(+) glucose (GIBCO Life Technologies). Twice a week, two-thirds of the Neurobasal medium was replaced with freshly prepared medium of the same composition. Cultures were used for neurotoxicity experiments after 12 days in culture. The research investigators at NTS were unaware of the material prior to, during the study and when the preliminary data were presented to the Sponsor (GB).
UCLA Human Brain and Spinal Fluid Resource Center (Los Angeles, Calif.) supplied the post mortem CSF samples from five donors of each of the nine study groups along with identification and clinical diagnosis and neuropathology diagnosis documents. Samples were stored at −170° C. prior to shipment and were shipped with dry ice. The study groups were control (no neurological disorder), Amyotrophic Lateral Sclerosis (ALS), Neuropathy (NP), Multiple Sclerosis (MS), Alzheimer's Disease (AD), Batten's Disease (BD), Huntington's Disease (HD), Parkinson's Disease (PD), and Cerebral Ischemia (stroke).
To test the effects of CSF on neuronal cell survival, CSF was added to the cultures in Neurobasal medium containing 10% CSF. CSF was added to the cultures and examined after 48 hours. Images of cultures were taken and then the cultures were subjected to MTT assay (see below) to determine the % cell death. Additional cultures were incubated with MNTF (100 nM) added to the cultures 2 hours prior to addition of CSF.
MTT assay. Viability of primary neurons was determined as described. The relative number of surviving cells was determined in triplicate using the value for cells stimulated with vehicles as 100%. Cell survival was assessed on the 2nd day of treatment via an MTT assay. MTT (3-[4,5-dimethylthiazol-2-yl]-2,5-diphenyltetrazolium bromide) was diluted to […] in Hanks' solution (Biochrom) and added to cultures for two hours at 37° C. The MTT formazan product was released from the cells by adding dimethylsulfoxide, and measured at 570 nm in an Ultrospect III spectrophotometer (Pharmacia). Relative survival in comparison to untreated controls could then be determined.

[6] = test system: middle cerebral artery occlusion (MCAO) mouse model; experiment: Middle cerebral artery occlusion (MCAO) mouse model, 1 hour ischemia and 24 hours reperfusion; type: in vivo, C57BL/6 mice; settings: 1 or 5 mg/kg IV single dose
Description: (§3) The MABP and heart rate was recorded using a Visitech System blood pressure monitor.
All animals were subjected to 1.0 h ischemia followed by 24 h reperfusion. […] Vehicle control received saline solution.
(§4) This study involved a transient model of ischemia. […] After the nylon suture was in place for 1 hour, it was pulled back into the ECA and the incision closed.
(§5) . The brains were transcardially perfused with 4 degree C., 10% phosphate-buffered saline (PBS). The brains were removed and chilled for 15 minutes at −20 degree C. before being placed in a Rodent Brain Matrix. Coronal sections (1-mm thickness) were prepared and subjected to 2% triphenyltetrazolium chloride (TTC) staining at 37 degree C. Seven serial one-mm thick coronal sections through the rostral to caudal extent of the infarction were obtained from each brain, beginning two-mm from the frontal pole. The TTC stained sections were placed in 10% neutral buffered formalin and kept in darkness at 4° C. for at least 24 hours. The infarct area in each section was determined with a computer-assisted image analysis system, consisting of a Power Macintosh computer equipped with a Quick Capture frame grabber card, Hitachi CCD camera mounted on an Olympus microscope and camera stand. NIH Image Analysis Software, v. 1.55 was used. The images were captured and the total area of damage determined over the seven sections.

[7] = GM6 levels in brain by competitive ELISA after IV injection (blood brain barrier penetration); type: in vivo, C57BL/6 mice; settings: for increase in GM6 in the brain vs vehicle: 4 hours; for level at time molar at 4 h: male, C57BL/6, mouse, WT mice, brain collected 4 hours later, read-out: ELISA MNTF (μM) in the brain
Description: as §1, §2
To measure GM6 levels in samples using the competitive ELISA kit. Affinity purified rabbit anti-6Mer was coated on ELISA plate at 10 ug/ml in coating buffer. 6Mer-biotin was used at 1 uM (final dilution) in the assay. The known concentrations of GM6 (competitor) were used as reference standards starting from 80 uM and titrating 2-fold down 0.625 uM in the test for establishing standard curve. Concentration of tested samples was estimated from their OD450 observation based on the standard curve.
The brain tissue was prepared in cell lysis buffer containing 100 mM Tris HCl, pH 7.0, containing 2% BSA, 1 M NaCl, 4 mM EDTA, 2% Triton X-100, 0.1% sodium azide and protease inhibitors (Complete™, Mini, Boehringer Mannheim). Homogenates were prepared in 10 volumes of buffer to tissue wet weight. The homogenates were centrifuged for 30 minutes at 14,000×g. The resulting supernatant was used for ELISA with the appropriate volume adjustment.
For the assay, the anti-6Mer pAb was diluted to 10 ug/ml in ELISA coating buffer. The 96-well micro-titer plates were coated with 100 ul/well of the diluted pAb. The plates were covered and kept refrigerated overnight. Next day, the plates were blocked with 200 ul/well TBS with 3% BSA, and kept at RT for 60 min. The plates were washed 3× with TBST (TBS+0.05% Tween 20). For each plate, 10 ml 1 uM 6Mer-biotin and make 1 ml standard mix was prepared: 1 uM 6Mer-biotin with 80 uM 6Mer. For each plate, lanes 1 and 2 were used for the standard curve. 1 uM 6Mer-biotin (100 μl) was added to all wells except A1 and A2 and 200 ul/well of standard mix was added to A1 and A2. A serial 2-fold dilution from wells A1 and A2 down to wells H1 and H2 was performed by taking out 100 ul sample from each well and mix it with next well—pipetting up and down at least 8 times. The extra 100 ul at the final wells (H1 and H2) was discarded. Test samples (brain homogenate) was diluted in Ab dilution buffer and mixed at a 1:50 with the 1 uM 6Mer-biotin. The plate was mixed on a shaker at 400 rpm for 2 hours at RT. The samples were washed 6× with TBST. Streptavidin-HRP (10 ml per plate) solution was prepared by diluting Streptavidin-HRP to 1:2000 in Ab dilution buffer. The plate was mixed on the shaker for another 1 hour at RT. The samples were wash 8× with TBST. […] The reaction was stopped with 50 ul 1M HCl. and read OD450 immediately.

[8] = test system: SH-SY5Y cells; experiment: Cell culture model of Parkinson's disease: SH-SY5Y cell viability (MTT) with or without salsolinol; type: cell-based, human; settings: for Viability (% Cells) Mean ± SD: 24 h
Description: SH-SY5Y cells were purchased from American Type Culture Collection (Manassas, Va.) and cultured in a complete media containing minimum essential media, Hams F-12 media and Hanks Balanced Salt Solution Gibco-BRL) in a ratio of 2:1:1. The media also contained 10% fetal bovine serum along with penicillin (50 U/ml) and streptomycin ([…]). The cells were cultured in flasks and kept in a humidified incubator containing 5% CO2 in air at 37° C. The media was changed every 2-3 days.
Prior to manipulation, cultures were assigned to different treatment groups based on a randomized block design.
For cell viability experiments, SH-SY5Y cells (0.5×10^5/well) were cultured in a 96-well cell culture plate and treated with (±) SAL (Sigma, St. Louis, Mo.) alone or along with different concentrations of (GM6) (Genervon), with or without Wortmannin (WRT) (Sigma, St. Louis, Mo.), a phosphatidylinositol-3-kinase (PI-3 kinase) inhibitor, for 24 h. Cell viability was determined by Thiazolyl blue (MTT) assay.

[9] = test system: middle cerebral artery occlusion (MCAO) mouse model; experiment: MCAO mouse model, 1 hour ischemia and 14 days reperfusion, time of first dose varied; type: in vivo, C57BL/6 mice; settings: 5 mg/kg IV
Description: as §3
Formulation of GM602 (CS Bio Co., Menlo Park, Calif., CS1507, GMP013, lot C811) was performed by NTS as a stock solution by reconstituting GM602 with (100%) saline that was stored at 4° C. Vehicle control received saline solution. The bolus IV injections via tail with GM602 was initiated at times of 0, 3, 6, 12 and 24 hours after the start of reperfusion and subsequently every day for 3 days following injury.
as §4
as §5, with “The brains were transcardially perfused with 4 degree C., 10% phosphate-buffered saline (PBS).” left out, “−20°” for “−20 degree”, “37°” for “37 degree”, “The TTC stained sections were placed in 10% neutral buffered formalin and kept in darkness at 4° C. for at least 24 hours.” left out, “NIH Image Analysis Software, v. 1.55 was used.” left out

[10] = test system: permanent middle cerebral artery occlusion (MCAO) rat model; experiment: Permanent middle cerebral artery occlusion (MCAO) rat model, 28 days; settings: 2.5, 10 or 20 mg/kg IV

MLSAFSRYAR [MNTF 10mer]
enhancing the survival of stem cell derived motor neurons [1]: nearly as effective as the MNTF 33mer
concentrations at which at least as effective as the full-length MNTF 33mer at stimulating differentiation of embryonic stem cells into motor neurons ([2]; in vitro): ≥ 0.01 µg/mL

LGTFWGDTLNCWMLSAFSRYARCLAEGHDGPTQ (LGTFWGDTLNCWMLSAFSRYARCLAEGHDGPTQ) [33-mer]
differentiation of ES cells into motor neurons ([2]; in conjunction with a low concentration of RA): induced differentiation

FSRYAR [GM6, FSRYAR]
safety problems in animal studies [3]: No safety problems were identified
immunoreactivity for GM6 in brain tissue [4]: No immunoreactivity was detected
% increase (↑) in cell survival ([5]; AD CSF + 100 nM MNTF vs AD CSF): 191%
% increase (↑) in cell survival ([5]; ALS CSF + 100 nM MNTF vs ALS CSF): 175%
% increase (↑) in cell survival ([5]; HD CSF + 100 nM MNTF vs HD CSF): 271%
% increase (↑) in cell survival ([5]; MS CSF + 100 nM MNTF vs MS CSF): 246%
% increase (↑) in cell survival ([5]; PD CSF + 100 nM MNTF vs PD CSF): 198%
% increase (↑) in cell survival ([5]; Stroke CSF + 100 nM MNTF vs Stroke CSF): 205%
changes in HR, BP, pO2, pCO2, or pH [6]: no changes
increase in GM6 in the brain vs vehicle ([7]; 0.2 mg/kg IV bolus): 400%
increase in GM6 in the brain vs vehicle ([7]; 2 mg/kg IV bolus): 3000%
level at time molar at 4 h ([7]; 0.2 mg/kg IV bolus): 1.76 µM
level at time molar at 4 h ([7]; 2 mg/kg IV bolus): 12.9 µM
Viability (% Cells) Mean ± SD ([8]; GM6 0.1 mg/ml, no salsolinol, MTT): 101.2 ± 7.260%
Viability (% Cells) Mean ± SD ([8]; GM6 1 mg/ml, no salsolinol, MTT): 108.0 ± 8.249%
Viability (% Cells) Mean ± SD ([8]; GM6 10 mg/ml + WRT (10 μM), no salsolinol): 93.81 ± 9.246%
Viability (% Cells) Mean ± SD ([8]; GM6 10 mg/ml, no salsolinol, MTT): 119.9 ± 14.01%
Viability (% Cells) Mean ± SD ([8]; Salsolinol 100 μM + GM6 0.1 mg/ml): 66% and 65.85 ± 10.80%
Viability (% Cells) Mean ± SD ([8]; Salsolinol 100 μM + GM6 1 mg/ml): 85% and 85.19 ± 10.18%
Viability (% Cells) Mean ± SD ([8]; Salsolinol 100 μM + GM6 10 mg/ml + WRT (10 μM)): 41.35 ± 10.79%
Viability (% Cells) Mean ± SD ([8]; Salsolinol 100 μM + GM6 10 mg/ml): 95% and 95.57 ± 8.328%
changes in CBF, HR, BP, pO2, pCO2, or pH [9]: no changes
changes in HR, BP, pO2, pCO2, or pH [10]: no changes

C[C@@H]1NCCc2cc(O)c(O)cc21 [Salsolinol, reference compound]
Viability (% Cells) Mean ± SD ([8]; Salsolinol 100 μM alone, MTT): 36.48 ± 12.78%
Viability (% Cells) Mean ± SD ([8]; Salsolinol 100 μM alone, MTT, listed as SAL): 36.5%
decrease in the number of cells ([8]; salsolinol 100 μM, 24 hour treatment): 63.7%
